Source: ChEMBL document CHEMBL1201862, “PubChem BioAssay data set” (2004)
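Protocol summary: plate cells (96-well), add compound at 5 concentrations, incubate 48 h, interpolate endpoints linearly. GI50: concentration for 50% inhibition of growth.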 Calls of active or inactive are those of the source. Rule as the data show it: active = GI50 up to about 1.1 µM and inactive = higher.

How the values were obtained:
Test in all cases: growth of human tumour cells (NCI), 48 h
DMS-273 = test system: DMS-273
SNB-78 = test system: SNB-78
LXFL 529 = test system: LXFL 529
KM-20L2 = test system: KM-20L2
HOP-18 = test system: HOP-18
XF498 = test system: XF498
BT-549 = test system: BT-549
DLD-1 = test system: DLD-1
RXF 631 = test system: RXF 631

Row | Compound | GI50 (DMS-273) | GI50 (SNB-78) | GI50 (LXFL 529) | GI50 (KM-20L2) | GI50 (XF498) | GI50 (BT-549) | GI50 (DLD-1) | further results
1 | C[Si](C)(C)/C(Br)=C\CCN1C(=O)CCC1O (centres undefined) | > 100 µM (inactive) | > 100 µM (inactive) | > 100 µM (inactive) | > 100 µM (inactive) | > 100 µM (inactive) | – | – | GI50 (HOP-18): > 100 µM (inactive)
2 | Oc1nc2cc(Cl)ccc2nc1/C(=N\Nc1ccccc1)C(O)c1ccc2c(c1)OCO2 (centres undefined) | – | – | – | – | – | > 100 µM (inactive) | – | –
3 | Cc1ccc(S(=O)(=O)N2CCSCCN(S(=O)(=O)c3ccc(C)cc3)CCN(S(=O)(=O)c3ccc(C)cc3)CC2)cc1 | – | – | – | – | – | 27.8 µM (inactive) | – | –
4 | C/C(CC(=O)Nc1ccc(NC(=O)/C(C)=N/NS(=O)(=O)c2ccc(C)cc2)cc1)=N\NS(=O)(=O)c1ccc(C)cc1 | – | > 100 µM (inactive) | > 100 µM (inactive) | > 100 µM (inactive) | – | – | > 100 µM (inactive) | –
5 | CC1=C(c2ccccc2)NC(=S)C(C)C(c2ccccc2)=N1 (centres undefined) | – | – | – | – | – | 23.7 µM (inactive) | – | –
6 | O=C(NC(N1CCN(c2cc3c(cc2F)c(=O)c(C(=O)O)cn3C2CC2)CC1)(C(F)(F)F)C(F)(F)F)c1ccccc1 | – | – | – | – | – | 51.2 µM (inactive) | – | –
7 | C[C@H]1CC[P+](C)(c2ccccc2)C1 (some centres undefined) | > 100 µM (inactive) | > 100 µM (inactive) | > 100 µM (inactive) | > 100 µM (inactive) | < 0.01 µM (active) | – | > 100 µM (inactive) | GI50 (HOP-18): > 100 µM (inactive)
8 | NCCCCC(NC(=O)C(N)Cc1ccc(O)cn1)C(=O)O (centres undefined) | – | – | – | – | – | > 100 µM (inactive) | – | –
9 | Brc1cc2c(cc1Br)CN(c1ccccc1)C2 | > 100 µM (inactive) | > 100 µM (inactive) | > 100 µM (inactive) | > 100 µM (inactive) | > 100 µM (inactive) | – | 68.2 µM (inactive) | –
10 | CCc1cc2c(O)c(c1)Cc1cc(CC)cc(c1O)Cc1cc(CC)cc(c1O)Cc1cc(CC)cc(c1O)Cc1cc(CC)cc(c1O)Cc1cc(CC)cc(c1O)Cc1cc(CC)cc(c1O)C2 | > 100 µM (inactive) | 55 µM (inactive) | > 100 µM (inactive) | > 100 µM (inactive) | 48.2 µM (inactive) | – | > 100 µM (inactive) | –
11 | COC1OC2COC(=O)c3cc(O)c(O)c(O)c3-c3c(cc(O)c(O)c3O)C(=O)OC2C(O)C1O (centres undefined) | – | – | – | – | – | > 100 µM (inactive) | – | –
12 | COC(=O)[C@H](Cc1ccccc1)NC(=O)N(CCC#N)CCCCN(CCC#N)C(=O)N[C@@H](Cc1ccccc1)C(=O)OC | – | – | – | – | – | > 100 µM (inactive) | – | –
13 | C(#CP(c1ccccc1)c1ccccc1)P(C#CP(c1ccccc1)c1ccccc1)c1ccccc1 | – | – | – | – | – | > 100 µM (inactive) | – | –
14 | N=C(N)NS(=O)(=O)c1ccc(NC(=O)c2cccc3c(Nc4ccc(S(N)(=O)=O)cc4)c4ccccc4nc23)cc1 | > 100 µM (inactive) | > 100 µM (inactive) | > 100 µM (inactive) | > 100 µM (inactive) | > 100 µM (inactive) | – | > 100 µM (inactive) | GI50 (HOP-18): > 100 µM (inactive)
15 | CCc1nc2c([nH]1)C(=O)c1ccccc1C2=O | 37.1 µM (inactive) | 53.7 µM (inactive) | – | – | 15.9 µM (inactive) | – | 39.1 µM (inactive) | –
16 | CC(CC(=O)N1C2CC3CCC2(CS1(=O)=O)C3(C)C)[Si](C)(C)C (centres undefined) | – | – | – | – | – | > 100 µM (inactive) | – | –
17 | CCCCCCCC(=O)OCC(C[As](=O)(O)O)OC(=O)CCCCCCC (centres undefined) | 14.1 µM (inactive) | 18.7 µM (inactive) | 13.4 µM (inactive) | 16.7 µM (inactive) | – | – | 16.9 µM (inactive) | GI50 (HOP-18): 15.8 µM (inactive)
18 | O=C(O)c1ccc(NNC(=O)c2cccc3c(=O)c4ccccc4[nH]c23)cc1 | – | – | – | – | – | 85.7 µM (inactive) | – | –
19 | O=C1OC(=O)C2CCCC3CCCC1C32 (centres undefined) | – | – | – | – | – | > 100 µM (inactive) | – | –
20 | O=C1CCCCC(=O)OC2(CCCCC2=O)CC1 (centres undefined) | – | – | – | – | – | > 100 µM (inactive) | – | –
21 | Cc1ccc(Nc2cccc3c2C(=O)c2cccc(Nc4ccc(C)cc4S(=O)(=O)O)c2C3=O)c(S(=O)(=O)O)c1 | > 100 µM (inactive) | > 100 µM (inactive) | > 100 µM (inactive) | > 100 µM (inactive) | – | – | > 100 µM (inactive) | GI50 (HOP-18): > 100 µM (inactive); GI50 (RXF 631): > 100 µM (inactive)
22 | C=C1C(C[C@@H]2O[C@H]3C[C@H]4O[C@@]5(C[C@@H]6O[C@]7(C[C@H](C)[C@@H]8O[C@@H]9CC(C(O)CO)O[C@@H]9C[C@@H]8O7)C[C@H](C)[C@@H]6O5)C[C@H]4O[C@H]3[C@H](C)[C@H]2O)O[C@@H](CC[C@@H]2O[C@@H](CC[C@@]34CC5O[C@H]6C(O[C@H]7CC[C@H](CC(=O)OC)O[C@@H]7[C@@H]6O3)[C@H]5O4)CC2=C)C[C@H]1C (some centres undefined) | – | – | – | – | – | < 0.0001 µM (active) | – | –
23 | c1ccc(C2OC3(CCC[C@H]4C[C@H]43)O[C@H]2c2ccccc2)cc1 (some centres undefined) | 49.4 µM (inactive) | 58.9 µM (inactive) | – | 30.8 µM (inactive) | 22.7 µM (inactive) | – | 78.9 µM (inactive) | GI50 (RXF 631): 89.3 µM (inactive)
24 | CC1C=CC(O)[C@]2(CO)CC3(CCC12)OCCO3 (some centres undefined) | > 100 µM (inactive) | > 100 µM (inactive) | > 100 µM (inactive) | > 100 µM (inactive) | > 100 µM (inactive) | – | > 100 µM (inactive) | GI50 (RXF 631): > 100 µM (inactive)
25 | CC(=O)Nc1cc(Nc2cc(O)nc(O)n2)ccc1C | – | – | – | – | – | > 100 µM (inactive) | – | –
26 | Nc1ncnc2c1ccn2COC(CO)CO | – | – | – | – | – | > 100 µM (inactive) | – | –
27 | O=C(CC(=O)c1ccccc1)c1ccccc1.O=C(CC(=O)c1ccccc1)c1ccccc1.O=C(CC(=O)c1ccccc1)c1ccccc1.[SiH4] | – | – | 3.39 µM (inactive) | 4.18 µM (inactive) | 3.87 µM (inactive) | – | 3.7 µM (inactive) | GI50 (HOP-18): 6.71 µM (inactive)
28 | O=C1Nc2ccc(Br)cc2/C1=N/NC(=S)Nc1ccc(F)cc1 | – | – | – | – | – | 0.395 µM (active) | – | –
29 | CCN(CC)CCC(=O)/C=C/c1ccc(Cl)c(Cl)c1 | – | – | – | – | – | 4.49 µM (inactive) | – | –
30 | CC1(O)CCC(C(C)(C)O)CC1 (centres undefined) [TERPIN] | – | – | – | – | – | > 100 µM (inactive) | – | –
